Experimental data reported in US8557559B2, “Self-dying recombinant microorganism for measuring soil and water contamination” (priority 2010, dated 2013).

What was measured:
Assay type in all cases: cell-based
[1] = tested on: recombinant strain, Sphingomonas paucimobilis (SEQ ID NO. 1); assay: Verification of substrate specificity: fluorescence reaction of recombinant strain in inorganic medium (LIVE/DEAD BacLight staining, micro-plate reader); details: inorganic medium with pyruvate; about 50 mg/L through about 500 mg/L; FIG. 2
Description: Phenanthrene was added to an inorganic medium including pyruvate as a carbon source, up to phenanthrene concentrations of about 50 mg/L through about 500 mg/L, the recombinant strain was inoculated, and a sample was taken every 24-hour and stained using LIVE/DEAD BacLight bacterial viability kit (Molecular Probes, L7012) and a fluorescence reaction was measured by a micro-plate reader.
A reaction of the recombinant strain with respect to an inorganic medium including hexane and hexadecane that are aliphatic hydrocarbon having the equivalent concentration, hexane concentrations being about 50 mg/L through about 500 mg/L and hexadecane concentrations being about 50 mg/L through about 500 mg/L, and a reaction of the recombinant strain with respect to an inorganic medium including toluene that is a monoaromatic hydrocarbon, toluene concentrations being about 1 mg/L through about 50 mg/L, were respectively measured for comparison.
The LIVE/DEAD BacLight bacterial viability kit is a dying scheme that labels, using a DNA-binding dye, DNA of a live microorganism with green fluorescence and labels, using […], DNA of dead microorganism with red fluorescence and thus, indicates a viability of microorganisms.
The reaction of the recombinant strain was expressed by a relative fluorescence intensity FL/FL0, that is, a value obtained by dividing a fluorescence reaction value FL of a recombinant strain exposed to a target contaminant by a fluorescence reaction value FL0 of a recombinant strain that is not exposed to the target contaminant. The relative fluorescence intensity FL/FL0 expresses the reaction of the recombinant strain, which is based on a concentration of contaminant, with a rate of decreasing fluorescence and thus, an error rate may be reduced during a test, and a concentration of toxicity may be expressed with a standardized fluorescence intensity value.

[2] = tested on: recombinant strain, Sphingomonas paucimobilis (SEQ ID NO. 1); assay: Performance of recombinant strain in real soil (M soil), CLSM fluorescence; details: 50 mg/kg to 1000 mg/kg, 24-hours, FIGS. 5 and 6
Excerpt: (§1) A confocal laser scanning microscope (CLSM) may measure a fluorescence reaction of the mixture of a soil sample and microorganisms to analyze phenanthrene in the soil sample. An image including measured green fluorescence and measured red fluorescence may be converted into a grayscale image after removing the measured red fluorescence from the image based on Adobe Photoshop CS4 (Adobe Systems, CA, USA). An integrated fluorescence intensity in an image of 254×254 pixels was quantified using a measure function of ImageJ program (ImageJ; Rasband, 1997-2009). The integrated fluorescence intensity may be a value obtained by dividing sum of illuminance of all the pixels by a number of the pixels in the image.
Phenanthrene was added to soil that had not been contaminated with phenanthrene up to concentrations from 50 mg/kg to 1000 mg/kg, an inorganic medium was added, the inorganic medium of 10 mL per soil of 2 g, the recombinant strain was inoculated and cultivated for 24-hours, and a reaction was measured in the same manner as Example 3.

[3] = tested on: recombinant strain, Sphingomonas paucimobilis (SEQ ID NO. 1); assay: Performance of recombinant strain in model soil (Ottawa sand), CLSM fluorescence quantified with ImageJ; details: model soil contaminated 50 mg/kg to 1000 mg/kg; FIG. 3
Excerpt: as §1
Ottawa sand was used as a model soil. The model soil was contaminated with phenanthrene up to concentrations from 50 mg/kg to 1000 mg/kg, an inorganic medium including pyruvate as a source of carbon was added, the inorganic medium of 10 mL per the model soil of 2 g, the recombinant strain was inoculated, and a sample was taken every 24-hour to measure a fluorescence response.
A fluorescence response was photographed by a CLSM to directly measure a mixture of the model soil, the liquid medium, and the recombinant strain, and the measured fluorescence reaction was quantified using an ImageJ program. […]

Compound	response of the recombinant strain (relative fluorescence intensity FL/FL0) [1]	reaction of the recombinant strain to phenanthrene in real soil [2]	response of the recombinant strain to phenanthrene in Ottawa sand [3]
CCCCCCCCCCCCCCCC [hexadecane]	may not respond	–	–
CCCCCC [hexane]	may not respond	–	–
c1ccc2c(c1)ccc1ccccc12 [phenanthrene]	death response	significantly sensitive to phenanthrene concentrations	as phenanthrene concentrations increase, a number of live microorganisms decrease
